Experimental data published in PubChem BioAssay AID328 (DTP/NCI, 2004).
Where “and” joins values, the source holds several entries; their conditions need not be identical. Equal values may be shown once. Toxic doses and inconclusive results are not listed. The calls were made as follows: active = survival T/C of 150% or more; inactive = T/C below 125% in these data.

Tested on: BDF1 mice, P388 leukemia ip, median survival T/C
Assay: NCI In Vivo Anticancer Drug Screen. Data for tumor model P388 Leukemia (intraperitoneal) in B6D2F1 (BDF1) mice
Conditions: endpoint: median survival time, higher = longer survival
Summary of the method: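 Read-out is survival of treated animals expressed relative to the vehicle group, as a T/C ratio.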

[1] = dose: 25.0 mg/kg/injection, schedule: Q04DX003 (ip), vehicle: saline
[2] = dose: 50.0 mg/kg/injection, schedule: Q04DX003 (ip), vehicle: saline
[3] = dose: 100.0 mg/kg/injection, schedule: Q01DX009 (ip), vehicle: Klucel (hydroxypropylcellulose) (HPC)
[4] = dose: 100.0 mg/kg/injection, schedule: Q04DX003 (ip), vehicle: saline
[5] = dose: 50.0 mg/kg/injection, schedule: Q04DX003 (ip), vehicle: saline with Tween-80
[6] = dose: 100.0 mg/kg/injection, schedule: Q04DX003 (ip), vehicle: saline with Tween-80
[7] = dose: 100.0 mg/kg/injection, schedule: Q01DX001 (ip), vehicle: saline with Tween-80
[8] = dose: 200.0 mg/kg/injection, schedule: Q01DX001 (ip), vehicle: saline with Tween-80
[9] = dose: 50.0 mg/kg/injection, schedule: Q01DX009 (ip), vehicle: saline with Tween-80
[10] = dose: 100.0 mg/kg/injection, schedule: Q01DX009 (ip), vehicle: saline with Tween-80
[11] = dose: 200.0 mg/kg/injection, schedule: Q04DX003 (ip), vehicle: saline with Tween-80
[12] = dose: 12.5 mg/kg/injection, schedule: Q04DX003 (ip), vehicle: Klucel (hydroxypropylcellulose) (HPC)
[13] = dose: 200.0 mg/kg/injection, schedule: Q01DX009 (ip), vehicle: saline with Tween-80
[14] = dose: 25.0 mg/kg/injection, schedule: Q01DX009 (ip), vehicle: saline with Tween-80
[15] = dose: 400.0 mg/kg/injection, schedule: Q04DX003 (ip), vehicle: saline with Tween-80

Measured: T/C

O=S(=O)(O)O.[N-]=C(N)/N=C(\[NH-])N.[N-]=C(N)/N=C(\[NH-])N.[N-]=C(N)NC(=[N-])N.[Rh+3]
inactive: dose: 6.25 mg/kg/injection, schedule: Q01DX009 (ip), vehicle: saline 104 % of control | dose: 12.5 mg/kg/injection, schedule: Q01DX009 (ip), vehicle: saline 95 % of control | dose: 12.5 mg/kg/injection, schedule: Q04DX003 (ip), vehicle: saline 100 % of control | dose: 25.0 mg/kg/injection, schedule: Q01DX009 (ip), vehicle: saline 119 % of control | [1] 109 % of control | [2] 118 % of control

Cc1cc(C)c(C(=O)C=O)c(C)c1
inactive: dose: 25.0 mg/kg/injection, schedule: Q01DX009 (ip), vehicle: Klucel (hydroxypropylcellulose) (HPC) 99 % of control | dose: 50.0 mg/kg/injection, schedule: Q01DX009 (ip), vehicle: Klucel (hydroxypropylcellulose) (HPC) 104 % of control | [3] 110 % of control

NC12CC3CC(CC(C3)C1)C2
inactive: dose: 25.0 mg/kg/injection, schedule: Q01DX010 (ip), vehicle: saline 100 % of control | dose: 50.0 mg/kg/injection, schedule: Q01DX010 (ip), vehicle: saline 100 % of control | dose: 100.0 mg/kg/injection, schedule: Q01DX010 (ip), vehicle: saline 100 % of control

CN(CCC#N)C1=CCCC1
inactive: [2] 100 % of control | [4] 100 % of control | dose: 200.0 mg/kg/injection, schedule: Q04DX003 (ip), vehicle: saline 100 % of control

COC(=O)c1ccccc1NC(=O)CCl
inactive: [5] 100 % of control | [6] 87 % of control

O=C(c1ccccc1)C(c1ccccc1)C(O)(C(F)(F)F)C(F)(F)F (configuration not stated)
inactive: [7] 100 % of control | [8] 95 % of control

C=C(Cl)CSCCS
inactive: dose: 25.0 mg/kg/injection, schedule: Q01DX009 (ip), vehicle: acetone 104 % of control | dose: 50.0 mg/kg/injection, schedule: Q01DX009 (ip), vehicle: acetone 104 % of control

BrCC(Br)CBr
inactive: [9] 104 % of control | [5] 100 % of control | [10] 122 % of control | [6] 100 % of control | [11] 104 % of control

c1ccc2c3csc4ccccc4c-3nc2c1
inactive: dose: 1.56 mg/kg/injection, schedule: Q04DX003 (ip), vehicle: Klucel (hydroxypropylcellulose) (HPC) 95 % of control | dose: 3.12 mg/kg/injection, schedule: Q04DX003 (ip), vehicle: Klucel (hydroxypropylcellulose) (HPC) 95 % of control | dose: 5.7 mg/kg/injection, schedule: Q01DX009 (ip), vehicle: Klucel (hydroxypropylcellulose) (HPC) 92 % of control and 113 % of control | dose: 6.25 mg/kg/injection, schedule: Q04DX003 (ip), vehicle: Klucel (hydroxypropylcellulose) (HPC) 104 % of control | dose: 8.75 mg/kg/injection, schedule: Q01DX009 (ip), vehicle: Klucel (hydroxypropylcellulose) (HPC) 88 % of control and 118 % of control | [12] 104 % of control | dose: 13.0 mg/kg/injection, schedule: Q01DX009 (ip), vehicle: Klucel (hydroxypropylcellulose) (HPC) 92 % of control and 113 % of control

OCC1CC[N-]CC1.OCC1CC[N-]CC1.[Cl][Pt+2]([Cl])([Cl])[Cl]
inactive: [1] 104 % of control | [2] 101 % of control | [4] 118 % of control

C=CCc1c(C)cc(C)c(C)c1O
inactive: dose: 100.0 mg/kg/injection, schedule: Q04DX003 (sc), vehicle: olive oil, sesame oil, peanut oil 96 % of control | dose: 200.0 mg/kg/injection, schedule: Q04DX003 (sc), vehicle: olive oil, sesame oil, peanut oil 92 % of control | dose: 400.0 mg/kg/injection, schedule: Q04DX003 (sc), vehicle: olive oil, sesame oil, peanut oil 92 % of control

C=Cn1ccc(=O)[nH]c1=O (tested in a mixture with another compound)
inactive: [9] 86 % of control | [10] 121 % of control | [13] 93 % of control

COc1ccc(C(=O)C/C(=N\N(C(=O)c2ccc(OC)cc2)c2ccccc2)c2ccc(OC)cc2)cc1
inactive: [9] 104 % of control | [10] 100 % of control | [13] 100 % of control

O=S1(=O)N2CN3CN(C2)CN1C3
inactive: [12] 121 % of control | dose: 50.0 mg/kg/injection, schedule: Q04DX003 (ip), vehicle: Klucel (hydroxypropylcellulose) (HPC) 105 % of control

O=C(CC(c1ccccc1)c1ccccc1)c1ccccc1
inactive: [3] 108 % of control | dose: 100.0 mg/kg/injection, schedule: Q04DX003 (ip), vehicle: Klucel (hydroxypropylcellulose) (HPC) 120 % of control | dose: 200.0 mg/kg/injection, schedule: Q01DX009 (ip), vehicle: Klucel (hydroxypropylcellulose) (HPC) 108 % of control | dose: 200.0 mg/kg/injection, schedule: Q04DX003 (ip), vehicle: Klucel (hydroxypropylcellulose) (HPC) 110 % of control | dose: 400.0 mg/kg/injection, schedule: Q01DX009 (ip), vehicle: Klucel (hydroxypropylcellulose) (HPC) 91 % of control | dose: 400.0 mg/kg/injection, schedule: Q04DX003 (ip), vehicle: Klucel (hydroxypropylcellulose) (HPC) 120 % of control

O=C(NC(=O)c1c(F)cccc1F)Nc1ccc(Cl)c(Cl)c1
inactive: [14] 96 % of control | [9] 97 % of control | [10] 100 % of control

ClCCn1cnc2c(SCc3ccccc3Cl)ncnc21
inactive: [14] 100 % of control | [9] 91 % of control | [10] 108 % of control | [6] 100 % of control | [15] 112 % of control

CC1C(=O)COCC1=O
inactive: [7] 102 % of control | [8] 101 % of control | dose: 400.0 mg/kg/injection, schedule: Q01DX001 (ip), vehicle: saline with Tween-80 98 % of control

O=C1CC(c2ccc([N+](=O)[O-])cc2)=Nc2ccccc2N1
inactive: [6] 109 % of control | [11] 104 % of control | [15] 114 % of control

COC1C(CNC23CC4CC(CC(C4)C2)C3)OC2OC(C)(C)OC21 (configuration not stated)
inactive: dose: 25.0 mg/kg/injection, schedule: Q01DX005 (ip), vehicle: saline with Tween-80 101 % of control | dose: 50.0 mg/kg/injection, schedule: Q01DX005 (ip), vehicle: saline with Tween-80 100 % of control and 113 % of control | dose: 100.0 mg/kg/injection, schedule: Q01DX005 (ip), vehicle: saline with Tween-80 99 % of control and 121 % of control | dose: 200.0 mg/kg/injection, schedule: Q01DX005 (ip), vehicle: saline with Tween-80 105 % of control and 115 % of control

CC(C)Cc1[nH]nc2c1C(=O)C(Nc1ccccc1)=CC2=O
inactive: [6] 99 % of control | [11] 100 % of control | [15] 100 % of control

CCN(CC)c1ccc(NC(=O)Nc2ccccc2OC)cc1
inactive: [6] 95 % of control | [11] 100 % of control | [15] 100 % of control

COc1cc(/C=N\NC(=O)CC#N)cc(OC)c1OC
inactive: [9] 90 % of control | [5] 95 % of control | [10] 104 % of control | [6] 95 % of control | [13] 100 % of control | [11] 95 % of control

CC(=O)Oc1c(Br)c(-c2cc([N+](=O)[O-])c(C)c([N+](=O)[O-])c2C)c(OC(C)=O)c(Br)c1-c1cc([N+](=O)[O-])c(C)c([N+](=O)[O-])c1C
inactive: dose: 50.0 mg/kg/injection, schedule: Q01DX001 (ip), vehicle: Klucel (hydroxypropylcellulose) (HPC) 112 % of control | dose: 100.0 mg/kg/injection, schedule: Q01DX001 (ip), vehicle: Klucel (hydroxypropylcellulose) (HPC) 115 % of control | dose: 200.0 mg/kg/injection, schedule: Q01DX001 (ip), vehicle: Klucel (hydroxypropylcellulose) (HPC) 115 % of control | dose: 400.0 mg/kg/injection, schedule: Q01DX001 (ip), vehicle: Klucel (hydroxypropylcellulose) (HPC) 106 % of control
